In patent publication US11370794B2, “Toll-like receptor antagonist compounds and methods of use” (Dynavax Technologies Corporation, priority 2016, dated 2022):
Where two headings read alike, the source gives them in different places.

Columns and labels:
human TLR8 = biological target: T1, human TLR8 (Homo sapiens, UniProt Q9NR97); experiment: Inhibition of human TLR8 in human monocytes (TNF-alpha / IL-1 beta ELISA); format: cell-based; conditions: for IC50: human monocytes, agonist ORN8L 100 μg/mL, 24 hours; for inhibits TLR8-dependent responses (in words): summary statement of the description
T1 construct: endogenous in cells; host or cells: primary human monocytes (CD14 microbeads) from buffy coats of healthy donors
T1 sequence (Q9NR97 27-1041): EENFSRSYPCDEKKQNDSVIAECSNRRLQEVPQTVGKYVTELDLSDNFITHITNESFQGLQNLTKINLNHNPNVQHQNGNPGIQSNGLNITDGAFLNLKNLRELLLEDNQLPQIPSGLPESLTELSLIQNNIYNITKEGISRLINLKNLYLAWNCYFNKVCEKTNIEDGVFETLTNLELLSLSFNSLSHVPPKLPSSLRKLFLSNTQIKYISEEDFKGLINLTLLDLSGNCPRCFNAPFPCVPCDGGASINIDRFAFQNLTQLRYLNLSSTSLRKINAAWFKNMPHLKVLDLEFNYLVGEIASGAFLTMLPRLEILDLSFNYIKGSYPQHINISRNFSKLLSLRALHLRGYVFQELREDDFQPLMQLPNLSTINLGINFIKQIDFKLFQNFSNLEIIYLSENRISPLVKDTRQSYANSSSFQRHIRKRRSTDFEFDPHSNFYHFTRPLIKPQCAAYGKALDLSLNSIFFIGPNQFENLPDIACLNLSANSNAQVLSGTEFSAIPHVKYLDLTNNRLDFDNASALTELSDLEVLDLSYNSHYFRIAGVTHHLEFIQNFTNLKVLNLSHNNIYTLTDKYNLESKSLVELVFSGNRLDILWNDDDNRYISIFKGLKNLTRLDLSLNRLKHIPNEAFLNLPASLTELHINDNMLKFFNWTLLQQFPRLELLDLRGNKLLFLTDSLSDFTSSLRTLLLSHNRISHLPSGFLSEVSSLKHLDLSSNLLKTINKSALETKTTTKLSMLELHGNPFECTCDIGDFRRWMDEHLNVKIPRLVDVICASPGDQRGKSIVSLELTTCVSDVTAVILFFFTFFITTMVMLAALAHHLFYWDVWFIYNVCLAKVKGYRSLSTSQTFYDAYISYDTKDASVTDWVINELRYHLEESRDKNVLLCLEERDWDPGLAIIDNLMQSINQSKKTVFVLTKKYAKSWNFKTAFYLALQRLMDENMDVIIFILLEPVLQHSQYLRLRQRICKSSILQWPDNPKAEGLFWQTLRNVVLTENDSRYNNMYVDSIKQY
Outline: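 Primary human monocytes from donor buffy coats (~200,000 cells/well) given serially diluted compound, then ORN8L RNA oligonucleotide agonist at 100 μg/mL final. After 24 h at 37 °C, supernatant TNF-alpha and/or IL-1 beta measured by ELISA; IC50 from the concentration-response of cytokine release.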

[1] = Plasma stability in human plasma; format: in vitro ADME; conditions: plasma (90%); 90% human plasma, 2 μM compound, 37° C., 0-60 minutes; read-out: T1/2 in human plasma
Protocol: Example B6—Plasma Stability
The stability of compounds in human plasma was tested. Human plasma was spiked with compound to final concentration of 90% plasma and 2 μM compound. Samples were incubated for 0, 5, 15, 30, 45 and 60 minutes at 37° C. The reaction was stopped by the addition of acetonitrile. An aliquot of the stopped reaction was mixed with ultra-pure water (Millipore, ZMQS50F01) and analyzed by liquid chromatography/electrospray ionization mass spectroscopy.

[2] = Metabolic stability in human liver microsomes; format: in vitro ADME; conditions: 0.5 mg/mL microsomal protein, 1.5 μM compound, 37° C.; for half-life at 1.5 μM: 0-45 minutes, read-out: T1/2 in human liver microsomes
Protocol: Example B7—Metabolic Stability
The stability of compounds in human liver microsomes was tested. Human liver microsomes (from BD Gentest) were spiked with compounds to a final liver microsomal protein concentration of 0.5 mg/mL and a final compound concentration of 1.5 μM. Samples were incubated for 0, 5, 15, 30, 45 minutes at 37° C. The reaction was stopped by the addition of acetonitrile. An aliquot of the stopped reaction was mixed with ultra-pure water (Millipore, ZMQS50F01) and analyzed by liquid chromatography/electrospray ionization mass spectroscopy.

[3] = IL-1 beta readout, read-out: Human TLR8 IC50 IL-1b
[4] = TNF-alpha readout, read-out: Human TLR8 IC50 TNF-a

Compound | IC50 (human TLR8; [3]) | IC50 (human TLR8; [4]) | inhibits TLR8-dependent responses (in words) (human TLR8) | half-life at 2 μM [1] | CLint scaled at 1.5 μM [2] | half-life at 1.5 μM [2]
Cc1ccc(-n2nc3c(N4CCC(C(=O)NCCCN(C)Cc5ccccc5)CC4)nnc(C)c3c2C)cc1 [Compound No. 1, N-(3-(benzyl(methyl)amino)propyl)-1-(3,4-dimethyl-2-(p-tolyl)-2H-pyrazolo[3,4-d]pyridazin-7-yl)piperidine-4-carboxamide] | 740 nM | 620 nM | inhibit | 3.74 h | 347 mL/min/kg | 0.0833 h
Cc1ccc(-n2nc3c(N4CCC(C(=O)NCCCN(C)C)CC4)nnc(C)c3c2C)cc1 [Compound No. 5, 1-(3,4-dimethyl-2-(p-tolyl)-2H-pyrazolo[3,4-d]pyridazin-7-yl)-N-(3-(dimethylamino)propyl)piperidine-4-carboxamide] | > 10000 nM | > 10000 nM |  | 17.9 h | 2.2 mL/min/kg | 13.3 h
Cc1ccc(-n2nc3c(N4CCC(C(=O)NCC(C)(C)CNc5ccccc5)CC4)nnc(C)c3c2C)cc1 [2-1] | 9920 nM | 9770 nM |  |  |  | 
Cc1ccc(-n2nc3c(N4CCC(C(=O)NC5CN(Cc6ccccc6)C5)CC4)nnc(C)c3c2C)cc1 [Compound No. 4, N-(1-benzylazetidin-3-yl)-1-(3,4-dimethyl-2-(p-tolyl)-2H-pyrazolo[3,4-d]pyridazin-7-yl)piperidine-4-carboxamide] | 1010 nM | 770 nM | inhibit |  |  | 
Cc1ccc(-n2nc3c(N4CCC(C(=O)NCCCc5c[nH]cn5)CC4)nnc(C)c3c2C)cc1 [Compound No. 6, N-(3-(1H-imidazol-4-yl)propyl)-1-(3,4-dimethyl-2-(p-tolyl)-2H-pyrazolo[3,4-d]pyridazin-7-yl)piperidine-4-carboxamide] | > 10000 nM | 6680 nM |  |  |  | 
Cc1ccc(-n2nc3c(N4CCC(C(=O)NC5CN(C)C5)CC4)nnc(C)c3c2C)cc1 [Compound No. 3, 1-(3,4-dimethyl-2-(p-tolyl)-2H-pyrazolo[3,4-d]pyridazin-7-yl)-N-(1-methylazetidin-3-yl)piperidine-4-carboxamide] | > 10000 nM | > 10000 nM |  | 3.45 h | 4.5 mL/min/kg | 6.4 h
Cc1ccc(-n2nc3c(N4CCC(CCC(=O)NCCN(C)C)CC4)nnc(C)c3c2C)cc1 [Compound No. 9, 3-(1-(3,4-dimethyl-2-(p-tolyl)-2H-pyrazolo[3,4-d]pyridazin-7-yl)piperidin-4-yl)-N-(2-(dimethylamino)ethyl)propanamide] | 5020 nM | 1220 nM |  |  |  | 
Cc1ccc(-n2nc3c(N4CCC(C(=O)N5CCN(Cc6ccccc6)CC5)CC4)nnc(C)c3c2C)cc1 [Compound No. 2, (4-benzylpiperazin-1-yl)(1-(3,4-dimethyl-2-(p-tolyl)-2H-pyrazolo[3,4-d]pyridazin-7-yl)piperidin-4-yl)methanone] | 900 nM | 670 nM | inhibit |  |  | 
